Source: ChEMBL document CHEMBL1777759, “Synthesis of benzologues of Nitazoxanide and Tizoxanide: a comparative study of their in vitro broad-spectrum antiprotozoal activity” (Bioorg Med Chem Lett, 2011)

Experiments:
[1] = Selectivity index, ratio of CC50 for african green monkey Vero cells to IC50 for Leishmania mexicana MHOM/MX/ISETGS; type: functional
[2] = system: Plasmodium berghei; assay: Antimalarial activity against Plasmodium berghei schizonts isolated from parasitized erythrocytes infected Wistar rat measured 16 hrs post compound exposure; type: functional, organism-based
[3] = Selectivity index, ratio of CC50 for african green monkey Vero cells to IC50 for Entamoeba histolytica HM1-IMSS; type: functional
[4] = system: Trypanosoma cruzi; assay: Antitrypanosomal activity against Trypanosoma cruzi MHOM/MX/1994/Ninoa epimastigotes after 72 hrs by neubauer chamber; type: functional, organism-based
[5] = system: Entamoeba histolytica; assay: Antiprotozoan activity against Entamoeba histolytica HM1-IMSS trophozoites after 48 hrs; type: functional, organism-based
[6] = system: Leishmania mexicana; assay: Antileishmanial activity against Leishmania mexicana MHOM/MX/ISETGS promastigotes after 72 hrs by neubauer chamber; type: functional, organism-based
[7] = system: Giardia intestinalis; assay: Antiprotozoan activity against Giardia intestinalis IMSS:0696:1 trophozoites after 48 hrs; type: functional, organism-based; conditions: Giardia duodenalis, IMSS:0696:1, 48 h
[8] = Selectivity index, ratio of CC50 for african green monkey Vero cells to IC50 for Plasmodium berghei; type: functional
[9] = Selectivity index, ratio of CC50 for african green monkey Vero cells to IC50 for Trypanosoma cruzi MHOM/MX/1994/Ninoa; type: functional
[10] = system: Trypanosoma cruzi; assay: Ratio of IC50 for benzanidazole to compound for Trypanosoma cruzi MHOM/MX/1994/Ninoa; type: functional
[11] = Selectivity index, ratio of CC50 for african green monkey Vero cells to IC50 for Trichomonas vaginalis GT3; type: functional
[12] = Cytotoxicity against african green monkey Vero cells after 72 hrs by MTT assay; type: cell-based; conditions: chlorocebus sabaeus
[13] = Selectivity index, ratio of CC50 for african green monkey Vero cells to IC50 for Giardia intestinalis IMSS:0696:1; type: functional
[14] = system: Entamoeba histolytica; assay: Ratio of IC50 for pentamidine to compound for Entamoeba histolytica HM1-IMSS; type: functional
[15] = system: Trichomonas vaginalis; assay: Antiprotozoan activity against Trichomonas vaginalis GT3 trophozoites after 48 hrs; type: functional, organism-based; conditions: GT3, 48 h

| SMILES | Ratio CC50/IC50 [1] | IC50 [2] [µM] | Ratio CC50/IC50 [3] | IC50 [4] [µM] | IC50 [5] [µM] | IC50 [6] [µM] | IC50 [7] [µM] | Ratio CC50/IC50 [8] | Ratio CC50/IC50 [9] | Ratio IC50 [10] | Ratio CC50/IC50 [11] | CC50 at 72 h [12] [µM] | Ratio CC50/IC50 [13] | Ratio IC50 [14] | IC50 [15] [µM] |
| --- | --- | --- | --- | --- | --- | --- | --- | --- | --- | --- | --- | --- | --- | --- | --- |
| CC(=O)Oc1ccccc1C(=O)Nc1nc2ccc([N+](=O)[O-])cc2s1 | 506 | 2.42 | 194 | 4.89 | 3.52 | 1.35 | 0.297 | 282 | 140 | 7 | 811 | 683 | 2300 | 10 | 0.842 |
| O=C(Nc1nc2ccc([N+](=O)[O-])cc2s1)c1ccccc1O | – | 2.37 | 76 | > 50 | 8.02 | > 50 | 0.59 | 256 | – | – | 283 | 607 | 1029 | – | 2.15 |
| O=C(Cn1ccnc1[N+](=O)[O-])NCc1ccccc1 [BENZNIDAZOLE] | – | 4.07 | – | – | – | > 50 | – | – | – | – | – | 14 | – | – | – |
| Cc1ncc([N+](=O)[O-])n1CCO [METRONIDAZOLE] | – | > 50 | – | > 50 | – | > 50 | – | – | – | – | – | 387 | – | – | – |
| CC(=O)Oc1ccccc1C(=O)Nc1ncc([N+](=O)[O-])s1 [NITAZOXANIDE] | 135 | 3.89 | 1653 | 18.7 | 0.504 | 6.18 | 1.21 | 214 | 44 | – | 12250 | 833 | 686 | – | 0.068 |
| N=C(N)c1ccc(OCCCCCOc2ccc(C(=N)N)cc2)cc1 [PENTAMIDINE] | – | 2.94 | – | > 50 | – | – | – | – | – | – | – | 47 | – | – | – |
| O=C(Nc1ncc([N+](=O)[O-])s1)c1ccccc1O [TIZOXANIDE] | 63 | 5.24 | 316 | 17.5 | 1.23 | 6.19 | 0.716 | 74 | 22 | – | 1839 | 388 | 542 | – | 0.211 |
